Assays:
[1] = RP-HPLC retention time used to determine hydrophobicity; assay type: physicochemical; settings: analytical RP-HPLC, C18 Sunfire column (4.6 mm × 150 mm, 3.5 μm); A = 0.05% TFA in water, B = acetonitrile; 10% to 100% B in 20 min then isocratic 100% B 10 min; 217 and 254 nm; used as measure of hydrophobicity
Description: The purity of the lipopeptides was checked by analytical RP-HPLC on an Agilent Infinity instrument equipped with a Diode Array and a C18 Sunfire column (4.6 mm × 150 mm, 3.5 μm). As mobile phase A:B mixtures were used, where A = 0.05% TFA in water and B = acetonitrile. The samples were analyzed at 217 and 254 nm in a gradient from 10% of B to 100% of B in 20 min followed by isocratic 100% of B in 10 min.
Retention times were used to determine the hydrophobicity ([Neubauer et al., 2020]). HRMS (EI+) was carried out in an Agilent 6,520 Accurate-Mass Q-TOF LC/MS spectrometer using water/acetonitrile mixtures. Results can be found in Supplementary Section S3, S4.

[2] = Calcein release from LUVs, all tested compositions; settings: 10 μM DICAM, 25°C, vesicle buffer pH 7.4, calcein release
Description: (§1) LUVs were prepared for calceine liberation assays as described ([Chongsiriwatana and Barron, 2009]). Lipid composition (mole %) of LUVs was: POPG (100), POPG:CL (80:20), POPG:CL:DOPE ([…]), and POPG:CL:GlcDAG (75:5:20). Briefly, the nitrogen-dried lipid mixture was dissolved at 1.25 mM with 100 mM calceine in vesicle buffer (10 mM Tris, 140 mM NaCl, 0.5 mM EDTA, pH 7.4) followed by five thaw-freeze cycles. Calceine-entrapped LUVs were prepared by extrusion through 100 nm polycarbonate membranes (Avanti Polar Lipids). Non-entrapped calceine was separated from LUVs by gel filtration on a Sephacryl® S200-HR column (Sigma). LUVs permeabilization was monitored at 25°C by fluorescence emission at 550 nm (λex = 480 nm) as a function of time in a Fluoromax-4 spectrofluorometer (Horiba, France) using agitation. Signal stabilization of samples (1,500 µL vesicle buffer plus 45 µL LUVs) was recorded for 5 min before 10 µM final DICAM addition, and calcein release was monitored for a maximum of 20 min. After incubation, samples were solubilized in Triton X-100 (0.025%) and the fluorescence signal recorded thereafter was used to normalize the entire data set. Solubilization of DICAM-untreated LUVs in Triton X-100 was used as a positive control. No perturbation was detected in controls containing DMSO.

[3] = test system: Streptococcus pneumoniae R6; experiment: Growth inhibition / lysis screening of planktonic cultures (OD550/600); assay type: cell-based; design: key: (+++) full inhibition; (++) partial inhibition; (+) growth retardation; -: (−) no effect; settings: S. pneumoniae R6, 50 and 100 μM compound added at early logarithmic phase (T1), OD550/600 followed 10 h, 37°C
Description: (§2) Planktonic cultures of selected pathogens (S. pneumoniae R6, S. pyogenes ^T, Staphylococcus aureus ^T, Escherichia coli DH10B, and Pseudomonas aeruginosa PAO1 strains) on early logarithmic-phase (T1) were assayed for their sensitivity to a broad range of DICAM compounds, as indicated in Table 1. Their bacteriostatic or lytic effect was first tested by measuring the variation of the OD550/600 as a function of time (10 h) when (50/100 μM) DICAMs were added, compared to untreated controls. The screening results, summarized in Table 1, evidenced that a potent antimicrobial activity may exist even when the negative charge of the peptide was higher than in the prototype compounds.
(§3) Susceptibility to DICAMs was first tested by growth-inhibition assays at 50 and 100 μM of compound. Briefly, working solutions at 5 mM or 10 mM DICAM in pure DMSO were prepared from DICAM stocks (40 mM in pure DMSO) and diluted with fresh culture medium to 5× the desired final concentration. Aliquots (50 µL) of these solutions were added to 200 µL of bacterium cultures grown to early exponential phase (OD550/600 c. a. 0.15–0.2 in sterile 96-well plates (Cultek, Spain). Incubation continued for 10 h at 37°C and turbidity (OD550/600) values were measured every 20 min to monitor growth and lysis, using a VersaMax microplate reader (Molecular Devices; United Kingdom). Next, the activity dependence on DICAM’s dose was examined by measuring the turbidity of treated and untreated cultures as a function of time. Also, the decay of bacterial viability (CFU/mL) at selected times of treatment was assessed by colony counting on LB-agar or TSA plates after overnight incubation at 37°C. By default, 10 μL of 10-fold serially diluted samples were plated, which set the lower detection limit at 10^2 CFU/mL (10^1 CFU/mL when 100 μL of the undiluted sample was seeded).

Escherichia coli DH10B = experiment: Growth inhibition screening of planktonic cultures (OD550/600); assay type: cell-based; design: key: (+++) full inhibition; (++) partial inhibition; (+) growth retardation; -: (−) no effect; settings: E. coli DH10B, 50 and 100 μM compound added at T1, OD550/600 followed 10 h, 37°C
Description: as §2, §3

Staphylococcus aureus T = experiment: as above; assay type: cell-based; design: key: (+++) full inhibition; (++) partial inhibition; (+) growth retardation; -: (−) no effect; settings: S. aureus T, 50 and 100 μM compound added at T1, OD550/600 followed 10 h, 37°C
Description: as §2, §3

Streptococcus pyogenes T = experiment: as above; assay type: cell-based; design: key: (+++) full inhibition; (++) partial inhibition; (+) growth retardation; -: (−) no effect; settings: S. pyogenes T, 50 and 100 μM compound added at T1, OD550/600 followed 10 h, 37°C
Description: as §2, §3

[4] = test system: Pseudomonas aeruginosa PAO1; experiment: as above; assay type: cell-based; design: key: (+++) full inhibition; (++) partial inhibition; (+) growth retardation; -: (−) no effect; settings: P. aeruginosa PAO1, 50 and 100 μM compound added at T1, OD550/600 followed 10 h, 37°C
Description: as §2, §3

S. pyogenes T membrane [5] = experiment: Membrane permeation, SYTOX Green; assay type: cell-based, Streptococcus pyogenes; settings: S. pyogenes T in PBS pH 7.2, 37°C
Description: (§4) Permeation and depolarization of S. pyogenes ^T membrane by DICAMs were assayed with the fluorescent probes SYTOX Green and DiSC3(5), respectively, in a Varioskan Flash microplate reader (Thermo Scientific; Spain) using FluoroNunc 96-well plates (Thermo Scientific; Spain). For permeation assays, cells were grown to an OD550 ≈ 0.3, washed once with PBS pH 7.2 (3,800 × g, 7 min, room temperature), and adjusted to a final OD550 ≈ 0.4 (∼10^8 CFU/mL) with the same buffer before mixing in the dark with SYTOX Green (5 µM final concentration). One hundred µL of this suspension was dispensed per plate well and the signal stabilization was monitored for 15 min (λex = 485 nm; λem = 520 nm). Then, 100 µL of two-fold serially diluted lipopeptide samples was added and changes in fluorescence intensity were registered for 60 min at 37°C. SYTOX Green (900 Da) binds to intracellular DNA when the cell membrane is damaged, thereby increasing fluorescence intensity ([Roth et al., 1997]). Positive controls (100% membrane permeabilization) were carried out by adding Titron X-100 (0.01% final concentration) to untreated bacterial samples ([Rathinakumar et al., 2009]). For membrane depolarization assays, 180 µL of an OD550 ≈ 0.2 culture (BHI; ≈ 10^7 CFU/mL) supplemented with DiSC3(5) (1 µM final concentration) was distributed per well, and signal stabilization was registered for 30 min (λex = 622 nm; λem = 670 nm) ([Te Winkel et al., 2016]). Subsequently, 20 µL of a two-fold serial dilution of lipopeptide in culture medium was added, and fluorescence intensity was recorded for 60 min at 37°C. Partition of DiSC3(5) to the surface of polarized cells decreases the probe fluorescence, and its release, caused by membrane depolarization, results in an increase in fluorescence. […] The background signal of controls with bacterial cells without the fluorescent probe, as well as the dye fluorescence in the presence of the tested compounds without bacteria, were also registered. No change in the fluorescence intensity of the probes occurred upon DICAM addition in the absence of bacterial cells.

[6] = Calcein release from LUVs; settings: 10 μM DICAM, 25°C, vesicle buffer pH 7.4, calcein release
Description: as §1

S. pyogenes T membrane [7] = experiment: Membrane depolarization, DiSC3(5); assay type: cell-based, Streptococcus pyogenes; settings: S. pyogenes T in BHI, 37°C
Description: as §4

Substance | Retention time [1] [min] | Permeation of model membranes (LUVs), result in words [2] | Growth halt or lysis (50/100 μM), Spn [3] | Growth halt or lysis (50/100 μM), Ec (Escherichia coli DH10B) | Growth halt or lysis (50/100 μM), Sa T (Staphylococcus aureus T) | Growth halt or lysis (50/100 μM), Spy T (Streptococcus pyogenes T) | Growth halt or lysis (50/100 μM), Pa [4] | Membrane permeation (SYTOX Green), result in words (S. pyogenes T membrane [5]) | Permeation of DOPE:POPG:CL (80:15:5) LUVs, result in words [6] | Membrane depolarization (DiSC3(5)), result in words (S. pyogenes T membrane [7])
Asn- Pro -NH-C18H37 · HCl [DICAM 13] | 20.18 | able to permeate all tested model membranes | - | - | - | + | - |  |  | 
Asn- Pro -Tyr(Bzl)-NH-C18H37 ·HCl [DICAM 6] | 22.10 |  | - | - | - | - | - | no depolarization or membrane permeation | particularly effective | no depolarization
